We go through 20 compounds from ChEMBL document CHEMBL1140402, “SAR, species specificity, and cellular activity of cyclopentene dicarboxylic acid amides as DHODH inhibitors” (Bioorg Med Chem Lett, 2005).

A word on the IC50: it is the concentration that inhibits the measured activity by half.

Assay [1] addresses Dihydroorotate dehydrogenase (quinone), mitochondrial (Rattus norvegicus, UniProt Q63707). Kind of assay: Inhibitory activity against rat dihydroorotate dehydrogenase.
A short description of assay [2]: Inhibitory activity (proliferation) against human peripheral blood mononuclear cells stimulated with Phytohemagglutininin-L (value range: 0.175-0.327). It is filed as functional.
Assay [3] has as its target Dihydroorotate dehydrogenase (quinone), mitochondrial (Mus musculus, UniProt O35435). The assay can be described thus: Inhibitory activity against mouse dihydroorotate dehydrogenase.
Assay [4] can be described thus: Inhibitory activity (proliferation) against human peripheral blood mononuclear cells stimulated with Phytohemagglutininin-L. The class given is functional.
In assay [5] the target is Dihydroorotate dehydrogenase (quinone), mitochondrial (Homo sapiens, UniProt Q02127). Kind of assay: Inhibition of N-terminally truncated recombinant human dihydroorotate dehydrogenase using in vitro enzyme assay.

Molecules are shown by their SMILES.

Chain of Dihydroorotate dehydrogenase (quinone), mitochondrial (Mus musculus, UniProt O35435) (O35435 whole entry): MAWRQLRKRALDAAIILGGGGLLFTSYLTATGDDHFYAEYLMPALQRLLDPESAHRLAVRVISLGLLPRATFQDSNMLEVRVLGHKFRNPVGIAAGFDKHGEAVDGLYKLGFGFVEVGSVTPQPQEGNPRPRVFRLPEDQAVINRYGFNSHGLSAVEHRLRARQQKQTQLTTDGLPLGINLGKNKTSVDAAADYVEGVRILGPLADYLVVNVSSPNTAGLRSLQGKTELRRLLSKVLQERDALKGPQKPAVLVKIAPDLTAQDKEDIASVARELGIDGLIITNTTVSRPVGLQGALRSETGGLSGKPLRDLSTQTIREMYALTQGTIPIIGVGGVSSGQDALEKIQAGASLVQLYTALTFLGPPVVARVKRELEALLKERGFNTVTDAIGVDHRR
Chain of Dihydroorotate dehydrogenase (quinone), mitochondrial (Rattus norvegicus, UniProt Q63707) (Q63707 whole entry): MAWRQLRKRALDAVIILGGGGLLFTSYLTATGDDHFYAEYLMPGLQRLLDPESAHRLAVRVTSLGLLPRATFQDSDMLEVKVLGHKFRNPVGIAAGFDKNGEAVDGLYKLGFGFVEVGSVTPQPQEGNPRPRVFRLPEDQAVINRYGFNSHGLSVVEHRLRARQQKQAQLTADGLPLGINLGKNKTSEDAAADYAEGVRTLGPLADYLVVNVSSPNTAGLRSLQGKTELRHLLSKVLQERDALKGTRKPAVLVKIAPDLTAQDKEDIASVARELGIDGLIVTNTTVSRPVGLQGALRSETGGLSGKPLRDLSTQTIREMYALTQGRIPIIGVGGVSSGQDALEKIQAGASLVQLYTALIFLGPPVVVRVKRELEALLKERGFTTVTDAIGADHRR
Chain of Dihydroorotate dehydrogenase (quinone), mitochondrial (Homo sapiens, UniProt Q02127) (Q02127 whole entry, the tested form may be a part): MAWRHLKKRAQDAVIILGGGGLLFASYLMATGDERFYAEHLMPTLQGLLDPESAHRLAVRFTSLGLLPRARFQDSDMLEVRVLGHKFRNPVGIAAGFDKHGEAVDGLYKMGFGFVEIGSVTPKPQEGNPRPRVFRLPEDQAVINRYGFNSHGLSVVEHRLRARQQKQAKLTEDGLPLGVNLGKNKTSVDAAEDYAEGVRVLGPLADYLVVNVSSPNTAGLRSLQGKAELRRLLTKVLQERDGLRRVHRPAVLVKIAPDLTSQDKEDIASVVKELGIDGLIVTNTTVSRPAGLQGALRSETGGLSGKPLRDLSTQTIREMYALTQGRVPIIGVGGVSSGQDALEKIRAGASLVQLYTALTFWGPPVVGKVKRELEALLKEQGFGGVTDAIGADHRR

Consider `O=C(O)C1=C(C(=O)Nc2c(F)c(F)c(-c3cccc(OC(F)(F)F)c3)c(F)c2F)CCC1`, for which the half-inhibitory concentration (IC50) in assay [1] came to 78 nM; in assay [2], 327 nM; in assay [3], 422 nM.

For `O=C(O)C1=C(C(=O)Nc2c(F)cc(-c3cccc(OC(F)(F)F)c3)cc2F)CCC1`, the IC50 in assay [4] was 15000 nM; in assay [1], 504 nM; in assay [3], 2000 nM. As for `O=C(O)C1=C(C(=O)Nc2ccc(OCc3c(F)cccc3Cl)c(Cl)c2)CCC1`, the IC50 in assay [5] was 11 nM. Regarding `O=C(O)C1=C(C(=O)Nc2ccc(OCc3c(F)cccc3Cl)c(Cl)c2)COC1`, the half-maximal inhibitory concentration (IC50) in assay [4] worked out at 1000 nM; in assay [1], 1200 nM; in assay [5] it was 41 nM; in assay [3], 1800 nM. Consider `COc1cccc(-c2ccc(NC(=O)C3=C(C(=O)O)CSC3)c(F)c2)c1`, for which the half-inhibitory concentration (IC50) in assay [5] is 131 nM. On the same count and under the same terms, the figure for `O=C(O)C1=C(C(=O)Nc2c(F)cc(-c3cccc(OC(F)(F)F)c3)cc2F)CSC1` is 15 nM; for `COc1cccc(-c2ccc(NC(=O)C3=C(C(=O)O)C(O)CC3)c(F)c2)c1` (configuration not stated) it is 680 nM. As for `O=C(O)C1=C(C(=O)Nc2c(F)c(F)c(-c3cccc(OC(F)(F)F)c3)c(F)c2F)COC1`, the IC50 in assay [5] worked out at 58 nM.

Regarding `O=C(O)C1=C(C(=O)Nc2c(F)c(F)c(-c3cccc(OC(F)(F)F)c3)c(F)c2F)CSC1`, the IC50 in assay [5] amounted to 4 nM. Same read-out and setting: the figure for `O=C(O)C1=C(C(=O)Nc2c(F)cc(-c3cccc(OC(F)(F)F)c3)cc2F)COC1` is 205 nM; for `O=C(O)C1=C(C(=O)Nc2cc(Br)c(OCc3ccccc3)c(Br)c2)CSC1` it is 173 nM; for `O=C(O)C1=C(C(=O)Nc2ccc(-c3ccccc3)cc2)CS(=O)(=O)C1` it is 3800 nM.

For the compound `COc1cccc(-c2ccc(NC(=O)C3=C(C(=O)O)CCC3O)c(F)c2)c1` (configuration not stated), the IC50 in assay [5] came out at 1460 nM. As for `COc1cccc(-c2ccc(NC(=O)C3=C(C(=O)O)COC3)c(F)c2)c1`, the 50% inhibitory concentration (IC50) in assay [5] is 360 nM. In the case of `O=C(O)C1=C(C(=O)Nc2cc(Br)c(OCc3ccccc3)c(Br)c2)CCC1`, the IC50 in assay [5] came to 127 nM. Compound `O=C(O)C1=C(C(=O)Nc2ccc(-c3ccccc3)cc2)CCC1` showed an IC50 in assay [1] of 1500 nM. As to `O=C(O)C1=C(C(=O)Nc2ccc(OCc3ccccc3)cc2)CCC1`, the IC50 in assay [5] was found to be 2000 nM. Same read-out and setting: the figure for `O=C(O)C1=C(C(=O)Nc2ccc(-c3ccccc3)cc2)CSC1` is 667 nM.

In assay [4], `C/C(O)=C(\C#N)C(=O)Nc1ccc(C(F)(F)F)cc1` [TERIFLUNOMIDE] yielded a half-inhibitory concentration (IC50) of 108000 nM. Same read-out and setting: the figure for `COc1cccc(-c2ccc(NC(=O)C3=C(C(=O)O)CCC3)c(F)c2)c1` [VIDOFLUDIMUS] is 13000 nM.
